Consider 25 molecules from patent US10053463B2 (Janssen Pharmaceutica NV, priority 2013, dated 2018).

The target of assay [1] is T1, P2X7 (Homo sapiens (Human), UniProt Q99572). The assay is described as follows: P2X7 antagonism in human peripheral blood mononuclear cells (PBMCs), IL-1β release. It counts as cell-based. As to conditions: 10 μM compound; for remaining activity at 10 µM: P2X7, Table 3 (additional runs), read-out: PBMC 10 μM (% control). The method in brief: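 Ficoll-isolated human PBMCs primed with LPS (30 ng/ml) for 1 h, treated with compound for 30 min, then stimulated with 0.5 mM Bz-ATP for 1.5 h. Supernatant IL-1β measured by ELISA as % of LPS+Bz-ATP minus LPS-only release; IC50 from concentration–response of triplicate means.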

Assay [2] addresses T1, P2X7. The assay is described as follows: Radioligand binding, human P2X7-1321N1 cell membranes, tracer tritiated A-804598. To be noted: Table 3 (additional runs). As to the method: P2X7 Antagonism in Recombinant Human P2X7 Cells or Recombinant Rat P2X7 Cells: (a) Ca^2+ Flux and (b) Radioligand Binding
(b) Radioligand Binding: human or rat P2X7-1321N1 cells were collected and frozen @−80° C. On the day of the experiment, cell membrane preparations were made according to standard published methods. The total assay volume was 100 μl:10 μl compound (10×)+(b) 40 μl tracer (2.5×)+50 μl membrane (2×). The tracer used for the assay was tritiated A-804598. The compound can be prepared as described in the literature. (Donnelly-Roberts, D. Neuropharmacology 2008, 56 (1), 223-229.) Compounds, tracer and membranes were incubated for 1 hour @ 4° C. The assay was terminated by filtration (GF/B filters pre-soaked with 0.3% PEI) and washed with washing buffer (Tris-HCl 50 mM). The IC50 generated in the binding assay was corrected for tracer concentration and affinity of the tracer to derive at the affinity (K) of the test compounds. […] Data are analyzed and graphed on Graphpad Prism 5. For analysis, each concentration point is averaged from triplicate values and the averaged values are plotted on Graphpad Prism.

pKi: −log10 of the molar value.

T1 sequence (Q99572 whole entry): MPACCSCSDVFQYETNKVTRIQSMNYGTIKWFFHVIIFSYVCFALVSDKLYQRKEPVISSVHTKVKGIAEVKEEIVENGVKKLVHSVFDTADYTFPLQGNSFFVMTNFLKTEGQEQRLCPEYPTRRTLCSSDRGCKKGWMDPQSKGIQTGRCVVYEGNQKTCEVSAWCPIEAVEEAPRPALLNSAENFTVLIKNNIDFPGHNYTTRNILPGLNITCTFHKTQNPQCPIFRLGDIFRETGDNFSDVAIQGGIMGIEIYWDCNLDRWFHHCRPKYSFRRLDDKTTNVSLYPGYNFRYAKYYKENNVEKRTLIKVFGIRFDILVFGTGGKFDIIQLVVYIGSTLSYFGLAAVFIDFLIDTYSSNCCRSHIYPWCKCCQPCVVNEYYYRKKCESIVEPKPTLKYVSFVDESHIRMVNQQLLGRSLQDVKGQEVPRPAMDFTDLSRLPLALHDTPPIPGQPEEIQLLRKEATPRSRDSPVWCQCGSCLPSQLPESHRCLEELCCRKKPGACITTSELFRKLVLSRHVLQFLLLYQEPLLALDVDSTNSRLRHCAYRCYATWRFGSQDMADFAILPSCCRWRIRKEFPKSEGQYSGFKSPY

On to `C[C@H]1Cn2c(nnc2-c2cnccn2)C(=O)N1Cc1cc([N+](=O)[O-])ccc1Cl` [Example 90, (6S)-7-(2-Chloro-5-nitrobenzyl)-6-methyl-3-pyrazin-2-yl-6,7-dihydro[1,2,4]triazolo[4,3-a]pyrazin-8(5H)-one], for which the remaining activity at 10 µM at P2X7 [1] came to 24.4%.
For the molecule `C[C@H]1Cn2c(nnc2-c2cnccn2)C(=O)N1Cc1cc(N)ccc1Cl` [Example 91, (6S)-7-(5-Amino-2-chlorobenzyl)-6-methyl-3-pyrazin-2-yl-6,7-dihydro[1,2,4]triazolo[4,3-a]pyrazin-8(5H)-one], the remaining activity at 10 µM at P2X7 [1] was determined as 11.6%.
Turning to `CC(c1ccccc1)N1C(=O)c2nnc(-c3cnccn3)n2C[C@@H]1C` (stereo partly drawn) [Example 92, (6S)-6-Methyl-7-(1-phenylethyl)-3-pyrazin-2-yl-6,7-dihydro[1,2,4]triazolo[4,3-a]pyrazin-8(5H)-one], the remaining activity at 10 µM on P2X7 [1] is -1%.
Turning to `CC(c1cccc(C(F)(F)F)c1Cl)N1C(=O)c2nnc(-c3cnccn3)n2C[C@@H]1C` (some centres unmarked) [Example 93], the remaining activity at 10 µM at P2X7 [1] is 4.5%. The “PBMC 10 μM (% control)” value at P2X7 [1] (Table 2, IL-1β release, LPS + 0.5 mM Bz-ATP) turned out to be 4.5 % control.
`C[C@H]1Cn2c(-c3cnccn3)nnc2-c2nnc(-c3cccc(C(F)(F)F)c3Cl)n21` [Example 99, (5S)-3-[2-Chloro-3-(trifluoromethyl)phenyl]-5-methyl-8-pyrazin-2-yl-5,6-dihydrobis[1,2,4]triazolo[4,3-a:3′,4′-c]pyrazine]: the pKi at P2X7 [2] was 8.10. The remaining activity at 10 µM at P2X7 [1] came out at 34.3%.
Taken in the same sequence, the figures for `C[C@H]1Cn2c(-c3cnccn3)nnc2-c2nnc(-c3cccc(Cl)c3Cl)n21` [Example 100, (5S)-3-(2,3-Dichlorophenyl)-5-methyl-8-pyrazin-2-yl-5,6-dihydrobis[1,2,4]triazolo[4,3-a:3′,4′-c]pyrazine] were 7.70 and 17.2%.
`C[C@H]1Cn2c(-c3ccc(F)cc3)nnc2-c2nnc(-c3cccc(C(F)(F)F)c3Cl)n21` [Example 101, (5S)-3-[2-Chloro-3-(trifluoromethyl)phenyl]-8-(4-fluorophenyl)-5-methyl-5,6-dihydrobis[1,2,4]triazolo[4,3-a:3′,4′-c]pyrazine] showed a negative-log Ki (pKi) on P2X7 [2] of 7.40. Moreover, at P2X7 [1], the remaining activity at 10 µM was 1.2%.
Take `C[C@H]1Cn2c(-c3ccc(F)cn3)nnc2-c2nnc(-c3cccc(C(F)(F)F)c3Cl)n21` [Example 102, (5S)-3-[2-Chloro-3-(trifluoromethyl)phenyl]-8-(5-fluoropyridin-2-yl)-5-methyl-5,6-dihydrobis[1,2,4]triazolo[4,3-a:3′,4′-c]pyrazine]: on P2X7 [1], the remaining activity at 10 µM worked out at 1.4%.
At P2X7 [2], `C[C@H]1Cn2c(-c3cc[nH]n3)nnc2-c2nnc(-c3cccc(C(F)(F)F)c3Cl)n21` [Example 103, (5S)-3-[2-Chloro-3-(trifluoromethyl)phenyl]-5-methyl-8-(1H-pyrazol-3-yl)-5,6-dihydrobis[1,2,4]triazolo[4,3-a:3′,4′-c]pyrazine] had a negative logarithm of the Ki (pKi) of 7.65. In addition, the remaining activity at 10 µM on P2X7 [1] stood at 3.3%.
Take `C[C@H]1Cn2c(-c3cocn3)nnc2-c2nnc(-c3cccc(C(F)(F)F)c3Cl)n21` [Example 104, (5S)-3-[2-Chloro-3-(trifluoromethyl)phenyl]-5-methyl-8-(1,3-oxazol-4-yl)-5,6-dihydrobis[1,2,4]triazolo[4,3-a:3′,4′-c]pyrazine]: on P2X7 [1], the remaining activity at 10 µM was 4.3%.
As to `C[C@H]1Cn2c(-c3ncccn3)nnc2-c2nnc(-c3cccc(C(F)(F)F)c3Cl)n21` [Example 105, (5S)-3-[2-Chloro-3-(trifluoromethyl)phenyl]-5-methyl-8-pyrimidin-2-yl-5,6-dihydrobis[1,2,4]triazolo[4,3-a:3′,4′-c]pyrazine], at P2X7 [2], the negative-log Ki (pKi) was 8.40. The remaining activity at 10 µM at P2X7 [1] came out at 0.2%.
Taken in the same sequence, the figures for `C[C@H]1Cn2c(-c3nccs3)nnc2-c2nnc(-c3cccc(C(F)(F)F)c3Cl)n21` [Example 106, (5S)-3-[2-Chloro-3-(trifluoromethyl)phenyl]-5-methyl-8-(1,3-thiazol-2-yl)-5,6-dihydrobis[1,2,4]triazolo[4,3-a:3′,4′-c]pyrazine] were 7.90 and 1.9%.
Consider `C[C@H]1Cn2cnnc2-c2nnc(-c3cccc(C(F)(F)F)c3Cl)n21` [Example 107, (5S)-3-[2-Chloro-3-(trifluoromethyl)phenyl]-5-methyl-5,6-dihydrobis[1,2,4]triazolo[4,3-a:3′,4′-c]pyrazine], for which, on P2X7 [1], the remaining activity at 10 µM was 40.2%.
Consider `C[C@H]1Cn2c(-c3cccnn3)nnc2-c2nnc(-c3cccc(C(F)(F)F)c3Cl)n21` [Example 108, (5S)-3-[2-Chloro-3-(trifluoromethyl)phenyl]-5-methyl-8-pyridazin-3-yl-5,6-dihydrobis[1,2,4]triazolo[4,3-a:3′,4′-c]pyrazine], for which, on P2X7 [1], the remaining activity at 10 µM is -0.5%.
At P2X7 [2], `Cc1ncsc1-c1nnc2n1C[C@H](C)n1c(-c3cccc(C(F)(F)F)c3Cl)nnc1-2` [Example 109, (5S)-3-[2-Chloro-3-(trifluoromethyl)phenyl]-5-methyl-8-(4-methyl-1,3-thiazol-5-yl)-5,6-dihydrobis[1,2,4]triazolo[4,3-a:3′,4′-c]pyrazine] had a negative logarithm of the Ki (pKi) of 7.20. In addition, the remaining activity at 10 µM on P2X7 [1] is -1.2%.
At P2X7 [2], `Cc1cnc(-c2nnc3n2C[C@H](C)n2c(-c4cccc(C(F)(F)F)c4Cl)nnc2-3)cn1` [Example 110, (5S)-3-[2-Chloro-3-(trifluoromethyl)phenyl]-5-methyl-8-(5-methylpyrazin-2-yl)-5,6-dihydrobis[1,2,4]triazolo[4,3-a:3′,4′-c]pyrazine] showed a negative-log Ki (pKi) of 7.20. For the same molecule, the remaining activity at 10 µM on P2X7 [1] was -1.4%.
For `C[C@H]1Cn2c(-c3ccncn3)nnc2-c2nnc(-c3cccc(C(F)(F)F)c3Cl)n21` [Example 111, (5S)-3-[2-Chloro-3-(trifluoromethyl)phenyl]-5-methyl-8-pyrimidin-4-yl-5,6-dihydrobis[1,2,4]triazolo[4,3-a:3′,4′-c]pyrazine], at P2X7 [2], the negative logarithm of the Ki (pKi) was 8.00. The remaining activity at 10 µM on P2X7 [1] stood at 6.1%.
Taken in the same sequence, the figures for `C[C@H]1Cn2c(-c3cn[nH]c3)nnc2-c2nnc(-c3cccc(C(F)(F)F)c3Cl)n21` [Example 112, (5S)-3-[2-Chloro-3-(trifluoromethyl)phenyl]-5-methyl-8-(1H-pyrazol-4-yl)-5,6-dihydrobis[1,2,4]triazolo[4,3-a:3′,4′-c]pyrazine] were 6.90 and 6.7%.
Taken in the same sequence, the figures for `COc1ccnc(-c2nnc3n2C[C@H](C)n2c(-c4cccc(C(F)(F)F)c4Cl)nnc2-3)c1` [Example 113, (5S)-3-[2-Chloro-3-(trifluoromethyl)phenyl]-8-(4-methoxypyridin-2-yl)-5-methyl-5,6-dihydrobis[1,2,4]triazolo[4,3-a:3′,4′-c]pyrazine] were 8.06 and 5.8%.
In the case of `C[C@H]1Cn2c(-c3cnn(C)c3)nnc2-c2nnc(-c3cccc(C(F)(F)F)c3Cl)n21` [Example 114, (5S)-3-[2-Chloro-3-(trifluoromethyl)phenyl]-5-methyl-8-(1-methyl-1H-pyrazol-4-yl)-5,6-dihydrobis[1,2,4]triazolo[4,3-a:3′,4′-c]pyrazine], the remaining activity at 10 µM at P2X7 [1] came out at 4.4%.
On to `C[C@H]1Cn2c(-c3cnco3)nnc2-c2nnc(-c3cccc(C(F)(F)F)c3Cl)n21` [Example 115, (5S)-3-[2-Chloro-3-(trifluoromethyl)phenyl]-5-methyl-8-(1,3-oxazol-5-yl)-5,6-dihydrobis[1,2,4]triazolo[4,3-a:3′,4′-c]pyrazine], for which the pKi at P2X7 [2] was 7.36. In addition, on P2X7 [1], the remaining activity at 10 µM is 2.1%.
`CCc1nnc2n1C[C@H](C)n1c(-c3cccc(C(F)(F)F)c3Cl)nnc1-2` [Example 116, (S)-3-[2-chloro-3-(trifluoromethyl)phenyl]-8-ethyl-5-methyl-5,6-dihydrobis[1,2,4]triazolo[4,3-a:3′,4′-c]pyrazine]: the remaining activity at 10 µM on P2X7 [1] worked out at 6.2%.
With `C[C@H]1Cn2c(-c3cccc(C(F)(F)F)n3)nnc2-c2nnc(-c3cccc(C(F)(F)F)c3Cl)n21` [Example 117, (S)-3-[2-chloro-3-(trifluoromethyl)phenyl]-5-methyl-8-(6-(trifluoromethyl)pyridine-2-yl)-5,6-dihydrobis[1,2,4]triazolo[4,3-a:3′,4′-c]pyrazine], the remaining activity at 10 µM on P2X7 [1] is 25.9%.
As to `C[C@H]1Cn2c(-c3cccnc3)nnc2-c2nnc(-c3cccc(C(F)(F)F)c3Cl)n21` [Example 122, (S)-3-[2-chloro-3-(trifluoromethyl)phenyl]-5-methyl-8-(pyridin-3-yl)-5,6-dihydrobis[1,2,4]triazolo[4,3-a:3′,4′-c]pyrazine], the remaining activity at 10 µM at P2X7 [1] came to 9.5%.
Same read-out and setting: next, `Cc1cncc(-c2nnc3n2C[C@H](C)n2c(-c4cccc(C(F)(F)F)c4Cl)nnc2-3)c1` [Example 123, (S)-3-(2-chloro-3-(trifluoromethyl)phenyl)-5-methyl-8-(5-methylpyridin-3-yl)-5,6-dihydrobis([1,2,4]triazolo)[4,3-a:3′,4′-c]pyrazine]: 2.4%.
